From ChEMBL document CHEMBL1201862, “PubChem BioAssay data set” (2004)
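Dose response: 5 concentrations. Exposure: 48 h. Format: 96-well plates. Endpoint: linear interpolation; highest concentration if not reached. Abbreviation: GI50, concentration required for 50% inhibition of growth.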 Active and inactive are the calls of the source. Cut-off read from the data, not from the text of the source: active = GI50 up to about 1.1 µM and inactive = higher.

Legend:
Assay in all cases: NCI anticancer screen, dose series, 48 h
HCC 2998 = tested on: HCC 2998
EKVX = tested on: EKVX
COLO 205 = tested on: COLO 205
SK-MEL-28 = tested on: SK-MEL-28
HL-60 = tested on: HL-60
HOP-92 = tested on: HOP-92
MCF7 = tested on: MCF7
K562 = tested on: K562
SW-620 = tested on: SW-620
CAKI-1 = tested on: CAKI-1
HCT-15 = tested on: HCT-15
RXF 393 = tested on: RXF 393
SF-539 = tested on: SF-539
SR = tested on: SR
PC-3 = tested on: PC-3
OVCAR-5 = tested on: OVCAR-5
Hs-578T = tested on: Hs-578T
M14 = tested on: M14
MDA-MB-231 = tested on: MDA-MB-231
NCI-H226 = tested on: NCI-H226

For `C[N+]1(C)CC[N+](C)(C)[BH-]1C(O)O`, the GI50 (HCC 2998) was > 100 µM (inactive), the GI50 (EKVX) was > 100 µM (inactive) and the GI50 (COLO 205) was > 100 µM (inactive). The GI50 (SK-MEL-28) was > 100 µM (inactive), the GI50 (HL-60) was > 100 µM (inactive) and the GI50 (HOP-92) was > 100 µM (inactive). For the same compound, the GI50 (MCF7) was > 100 µM (inactive), the GI50 (K562) was > 100 µM (inactive) and the GI50 (SW-620) was > 100 µM (inactive). The GI50 (CAKI-1) was > 100 µM (inactive), the GI50 (HCT-15) was > 100 µM and the GI50 (RXF 393) was > 100 µM (inactive). For the same compound, the GI50 (SF-539) was > 100 µM (inactive), the GI50 (SR) was > 100 µM (inactive) and the GI50 (PC-3) was > 100 µM (inactive). For the same compound, the GI50 (OVCAR-5) was > 100 µM (inactive), the GI50 (Hs-578T) was > 100 µM (inactive) and the GI50 (M14) was > 100 µM (inactive). The GI50 (MDA-MB-231) was > 100 µM (inactive).
With `Oc1cc(-c2cccc(OCc3ccccc3)c2)nc2cc3c(cc12)OCO3` the GI50 (NCI-H226) was 0.455 µM (active), the GI50 (HCC 2998) was 0.298 µM (active) and the GI50 (EKVX) was 0.378 µM (active). For the same compound, the GI50 (COLO 205) was 1.31 µM (inactive), the GI50 (SK-MEL-28) was 0.632 µM (active) and the GI50 (HL-60) was 0.0935 µM (active). The GI50 (HOP-92) was 0.578 µM (active), the GI50 (MCF7) was 1.91 µM (inactive) and the GI50 (K562) was 0.235 µM (active). For the same compound, the GI50 (SW-620) was 0.303 µM (active), the GI50 (CAKI-1) was 0.673 µM (active) and the GI50 (HCT-15) was 0.376 µM. For the same compound, the GI50 (RXF 393) was 0.33 µM (active), the GI50 (SF-539) was 0.252 µM (active) and the GI50 (SR) was 0.397 µM (active). For the same compound, the GI50 (PC-3) was 0.327 µM (active), the GI50 (OVCAR-5) was 3.4 µM (inactive) and the GI50 (Hs-578T) was 0.303 µM (active). For the same compound, the GI50 (M14) was 0.311 µM (active) and the GI50 (MDA-MB-231) was 0.605 µM (active).
`C=CCc1cccc2cc(C(=O)Nc3ccccc3)c(=N)oc12` was tested, and the GI50 (NCI-H226) was 36.6 µM (inactive), the GI50 (HCC 2998) was 4.8 µM (inactive) and the GI50 (COLO 205) was > 100 µM (inactive). For the same compound, the GI50 (SK-MEL-28) was 80.4 µM (inactive), the GI50 (HL-60) was > 100 µM (inactive) and the GI50 (HOP-92) was > 100 µM (inactive). For the same compound, the GI50 (MCF7) was 7.11 µM (inactive), the GI50 (K562) was 64 µM (inactive) and the GI50 (SW-620) was > 100 µM (inactive). For the same compound, the GI50 (CAKI-1) was 63.2 µM (inactive), the GI50 (HCT-15) was 33.6 µM and the GI50 (RXF 393) was > 100 µM (inactive). For the same compound, the GI50 (SF-539) was 28.2 µM (inactive), the GI50 (SR) was > 100 µM (inactive) and the GI50 (PC-3) was 39.2 µM (inactive). For the same compound, the GI50 (OVCAR-5) was 38.8 µM (inactive), the GI50 (Hs-578T) was 37.6 µM (inactive) and the GI50 (M14) was 60.7 µM (inactive). For the same compound, the GI50 (MDA-MB-231) was > 100 µM (inactive).
`CC(=O)NC1C(OCc2ccccc2)OC(CO)C(O)C1OC(C)C(=O)NC(C(=O)NC(CCC(=O)NCCCC(=O)Nc1ccc2c(c1)CN1C(=O)c3ccccc3C1=N2)C(N)=O)C(C)C` (stereo not given) was tested, and the GI50 (HCC 2998) was > 100 µM (inactive), the GI50 (EKVX) was > 100 µM (inactive) and the GI50 (COLO 205) was > 100 µM (inactive). For the same compound, the GI50 (SK-MEL-28) was > 100 µM (inactive), the GI50 (HL-60) was > 100 µM (inactive) and the GI50 (HOP-92) was > 100 µM (inactive). For the same compound, the GI50 (MCF7) was > 100 µM (inactive), the GI50 (K562) was > 100 µM (inactive) and the GI50 (SW-620) was > 100 µM (inactive). For the same compound, the GI50 (CAKI-1) was > 100 µM (inactive), the GI50 (HCT-15) was > 100 µM and the GI50 (RXF 393) was > 100 µM (inactive). The GI50 (SF-539) was > 100 µM (inactive), the GI50 (SR) was > 100 µM (inactive) and the GI50 (PC-3) was > 100 µM (inactive). The GI50 (OVCAR-5) was > 100 µM (inactive), the GI50 (Hs-578T) was > 100 µM (inactive) and the GI50 (M14) was > 100 µM (inactive). The GI50 (MDA-MB-231) was > 100 µM (inactive).
For `COC1(c2ccccc2)N=C(S)NN=C1c1ccccc1` (stereo not given), the GI50 (HCC 2998) was 19.2 µM (inactive), the GI50 (EKVX) was 89.9 µM (inactive) and the GI50 (COLO 205) was 21.9 µM (inactive). For the same compound, the GI50 (SK-MEL-28) was 85.1 µM (inactive), the GI50 (HL-60) was 21 µM (inactive) and the GI50 (HOP-92) was > 100 µM (inactive). The GI50 (MCF7) was 38 µM (inactive), the GI50 (K562) was 33.4 µM (inactive) and the GI50 (SW-620) was 38.6 µM (inactive). The GI50 (CAKI-1) was 73.8 µM (inactive), the GI50 (HCT-15) was 24.3 µM and the GI50 (RXF 393) was 63.4 µM (inactive). The GI50 (SR) was 29.4 µM (inactive), the GI50 (PC-3) was 31.4 µM (inactive) and the GI50 (OVCAR-5) was 78.2 µM (inactive). For the same compound, the GI50 (Hs-578T) was 42.4 µM (inactive), the GI50 (M14) was 27.5 µM (inactive) and the GI50 (MDA-MB-231) was 27.5 µM (inactive).
For `CCN(CCCl)c1ccc(NC(=O)c2cc(C(=O)NCCN(C)C)cc(C(=O)Nc3ccc(N(CC)CCCl)cc3)c2)cc1`, the GI50 (NCI-H226) was 3.94 µM (inactive), the GI50 (HCC 2998) was 10.6 µM (inactive) and the GI50 (SK-MEL-28) was 16.6 µM (inactive). For the same compound, the GI50 (HL-60) was 0.0743 µM (active), the GI50 (HOP-92) was 3.74 µM (inactive) and the GI50 (MCF7) was 0.746 µM (active). The GI50 (K562) was 2.09 µM (inactive), the GI50 (SW-620) was 1.76 µM (inactive) and the GI50 (CAKI-1) was 27.5 µM (inactive). For the same compound, the GI50 (HCT-15) was 51.1 µM, the GI50 (RXF 393) was 5.41 µM (inactive) and the GI50 (SF-539) was 1.62 µM (inactive). For the same compound, the GI50 (SR) was 0.659 µM (active), the GI50 (PC-3) was 2.22 µM (inactive) and the GI50 (OVCAR-5) was 16.5 µM (inactive). The GI50 (Hs-578T) was 0.513 µM (active), the GI50 (M14) was 9.38 µM (inactive) and the GI50 (MDA-MB-231) was 15.6 µM (inactive).
In the case of `Cn1c2ccccc2c2c3c(c4c5ccccc5n(C)c4c21)C(=O)NC3=O`, the GI50 (NCI-H226) is reported as 40.7 µM (inactive), the GI50 (HCC 2998) is reported as > 33.7 µM (inactive) and the GI50 (EKVX) is reported as 10.9 µM (inactive). The GI50 (COLO 205) was > 72.6 µM (inactive), the GI50 (SK-MEL-28) was > 65.2 µM (inactive) and the GI50 (HOP-92) was > 36.7 µM (inactive). The GI50 (MCF7) was 37.8 µM (inactive), the GI50 (K562) was > 54.6 µM (inactive) and the GI50 (SW-620) was > 74.6 µM (inactive). For the same compound, the GI50 (CAKI-1) was 0.0256 µM (active), the GI50 (HCT-15) was > 100 µM and the GI50 (RXF 393) was 0.0589 µM (active). The GI50 (SF-539) was 10.2 µM (inactive), the GI50 (SR) was < 0.01 µM (active) and the GI50 (PC-3) was > 31.4 µM (inactive). The GI50 (OVCAR-5) was 72.8 µM (inactive), the GI50 (Hs-578T) was 24.8 µM (inactive) and the GI50 (M14) was > 41.3 µM (inactive). For the same compound, the GI50 (MDA-MB-231) was 13.4 µM (inactive).
For `Cc1nc2ccccc2c(=O)n1NC(=O)Cc1ccccc1`, the GI50 (NCI-H226) was > 100 µM (inactive), the GI50 (HCC 2998) was > 100 µM (inactive) and the GI50 (EKVX) was > 100 µM (inactive). For the same compound, the GI50 (COLO 205) was > 100 µM (inactive), the GI50 (SK-MEL-28) was > 100 µM (inactive) and the GI50 (HL-60) was > 100 µM (inactive). The GI50 (HOP-92) was > 100 µM (inactive), the GI50 (MCF7) was > 100 µM (inactive) and the GI50 (K562) was > 100 µM (inactive). The GI50 (SW-620) was > 100 µM (inactive), the GI50 (RXF 393) was > 100 µM (inactive) and the GI50 (SF-539) was > 100 µM (inactive). The GI50 (SR) was > 100 µM (inactive), the GI50 (PC-3) was > 100 µM (inactive) and the GI50 (OVCAR-5) was > 100 µM (inactive). The GI50 (Hs-578T) was > 100 µM (inactive), the GI50 (M14) was > 100 µM (inactive) and the GI50 (MDA-MB-231) was > 100 µM (inactive).
